Measured values reported in US11026972B2, “Methods for generating macrophages with enhanced cancer phagocytosis” (Georgia State University Research Foundation, Inc., priority 2016, dated 2021).

B1: IL-17: recombinant murine cytokine interleukin IL-17 (also known as IL-17A), PeproTech (protein, UniProt Q62386 26-158, looked up)
Interleukin-17A: AAIIPQSSACPNTEAKDFLQNVKVNLKVFNSLGAKVSSRRPSDYLNRSTSPWTLHRNEDPDRYPSVIWEAQCRHQRCVNAEGKLDHHMNSVLIQQEILVLKREPESCPFTFRVEKMLVGVGCTCVASIVRQAA

Legend:
[1] = test system: SIRPα; conditions: following LPS stimulation; cited from earlier work
[2] = test system: cell surface LRP1 and CRT on PEMs; assay: Macrophage cell surface CRT and LRP1 by FACS; assay type: cell-based, mouse; conditions: after treatment with phagocytic activation factor
Method: FIGS. 6A-6D include data related to our investigation of possible phagocytic receptors on macrophages for phagocytosing healthy self-cells. […] PEM (unstimulated) phagocytosis toward apoptotic B16 cells was tested in the presence of same antibodies and RAP as in A. Error bars are ±SEM. ***P<0.001 vs. phagocytosis in the presence of control IgG. […] PEMs, with or without (ctl.) treatment with LPS, IL-17, IL-6, or PMA, were labeled for cell surface LRP1 and CRT followed by FACS. Increased and decreased expressions were marked by arrows. […] Activated PEM phagocytosis toward RBCs was tested in the presence of antibodies against SR-A, Fc receptor Cd16/32 (10 μg/mL of each), inhibitors against SR-B (BLT1, 5 μM), dectin (laminarin, 100 μg/mL), complement (heparin, 40 U/mL), and antibody against Cd11b (10 μg/mL). Error bars are ±SEM. ***P<0.001 vs. the respective control without inhibition. Data presented in each panel represent at least three independent experiments with n≥4, if applicable.

[3] = test system: CFSE-labeled CD47^+ or CD47^− RBCs in recipient mice; assay: RBC adoptive transfer and in vivo clearance of CFSE-labeled RBCs; parameters: species or system mouse; conditions: 24 h
Text: FIGS. 2A-2E includes data related to macrophage phagocytosis in vivo assessed by adoptive transfer experiments. FIGS. 2A-C are illustrative graphs showing clearance of adoptively transferred CD47-positive (Cd47^+) or CD47-negative (Cd47^−) RBC in recipient mice. […] Error bars are ±SEM. **P<0.01, ***P<0.001 vs. WT mice clearance of Cd47^+ RBCs. […] Mice treated with DSS (1% for SIRPα^−/− mice, 2% for WT and Cd47^−/− mice) for 8 d (d8) were transfused with CFSE-RBCs followed by determination of RBC clearance after 24 h. FACS data of Cd47^+ RBCs and Cd47^− RBCs in different mice at 30 min and 24 h after transfer were selectively shown. Total RBC phagocytosis was calculated based on the rates of CFSE-RBC clearance and the fact that SIRPα^−/− mice eliminate both Cd47^− RBC and Cd47^+ RBC, whereas WT mice and Cd47^−/− mice eliminate only Cd47^− RBCs. […] Mice treated once with IL-17 (10 μg/kg, i.v.) were transfused with CFSE-labeled Cd47^+ or Cd47^− RBCs a day later. Error bars are ±SEM. **P<0.01, ***P<0.001 vs. control or the initial time point. Data presented in each panel represent at least three independent experiments with n≥4, if applicable.
Adoptive transfer and in vivo clearance: CD47-expressing (CD47^+) RBC freshly collected from WT or SIRPα^−/− mice, and CD47-null (CD47^−) RBC collected from CD47^−/− mice were labeled with carboxyfluorescein succinimidyl ester (CFSE). After washing, about 1×10^9 RBC suspended in 200 μl sterile PBS were transfused into recipient mice by intravenous (i.v.) injection. Blood samples (5 μl) were then collected 30 min after the blood transfusion and the CFSE-labeled RBC in the circulation was assessed by FACS analyses. Blood samples (5 μl each) were then collected at later time points to assess the clearance of CFSE-labeled RBC as compared to that found at 30 min. For each sample, at least 50,000 RBC were examined by FACS. […] Clearance of CFSE-labeled cells in the circulation and the spleen were analyzed by FACS analyses of blood samples and splenocytes. […]

| Molecule | SIRPα expression in macrophages [1] | cell surface CRT or LRP1 on PEMs [2] | clearance of transferred CD47^+ and CD47^− RBCs ([3]; SIRPα^−/− mice, 1% DSS for 8 d or directly injected with IL-17) | clearance of transferred RBCs ([3]; mutant mice treated with IL-17 multiple times and a longer period (d1 and d3)) |
| --- | --- | --- | --- | --- |
| lipopolysaccharide [LPS] | decreased | induced an increase in CRT | – | – |
| B1 | – | – | ~50% | < 5% |
